Measured values published in ChEMBL document CHEMBL4507319 (2021).

Key:
[1] = system: OPM-2; experiment: OPM-2 cell line Proliferation assay; format: functional, Homo sapiens; details: time 3 day
[2] = molecular target: T1, Myosin-IIIb (Homo sapiens) (UniProt Q8WXR4); experiment: MYO3B(h) Eurofins kinase panel; details: Compound concentration 1.0 uM
T1 sequence (whole entry): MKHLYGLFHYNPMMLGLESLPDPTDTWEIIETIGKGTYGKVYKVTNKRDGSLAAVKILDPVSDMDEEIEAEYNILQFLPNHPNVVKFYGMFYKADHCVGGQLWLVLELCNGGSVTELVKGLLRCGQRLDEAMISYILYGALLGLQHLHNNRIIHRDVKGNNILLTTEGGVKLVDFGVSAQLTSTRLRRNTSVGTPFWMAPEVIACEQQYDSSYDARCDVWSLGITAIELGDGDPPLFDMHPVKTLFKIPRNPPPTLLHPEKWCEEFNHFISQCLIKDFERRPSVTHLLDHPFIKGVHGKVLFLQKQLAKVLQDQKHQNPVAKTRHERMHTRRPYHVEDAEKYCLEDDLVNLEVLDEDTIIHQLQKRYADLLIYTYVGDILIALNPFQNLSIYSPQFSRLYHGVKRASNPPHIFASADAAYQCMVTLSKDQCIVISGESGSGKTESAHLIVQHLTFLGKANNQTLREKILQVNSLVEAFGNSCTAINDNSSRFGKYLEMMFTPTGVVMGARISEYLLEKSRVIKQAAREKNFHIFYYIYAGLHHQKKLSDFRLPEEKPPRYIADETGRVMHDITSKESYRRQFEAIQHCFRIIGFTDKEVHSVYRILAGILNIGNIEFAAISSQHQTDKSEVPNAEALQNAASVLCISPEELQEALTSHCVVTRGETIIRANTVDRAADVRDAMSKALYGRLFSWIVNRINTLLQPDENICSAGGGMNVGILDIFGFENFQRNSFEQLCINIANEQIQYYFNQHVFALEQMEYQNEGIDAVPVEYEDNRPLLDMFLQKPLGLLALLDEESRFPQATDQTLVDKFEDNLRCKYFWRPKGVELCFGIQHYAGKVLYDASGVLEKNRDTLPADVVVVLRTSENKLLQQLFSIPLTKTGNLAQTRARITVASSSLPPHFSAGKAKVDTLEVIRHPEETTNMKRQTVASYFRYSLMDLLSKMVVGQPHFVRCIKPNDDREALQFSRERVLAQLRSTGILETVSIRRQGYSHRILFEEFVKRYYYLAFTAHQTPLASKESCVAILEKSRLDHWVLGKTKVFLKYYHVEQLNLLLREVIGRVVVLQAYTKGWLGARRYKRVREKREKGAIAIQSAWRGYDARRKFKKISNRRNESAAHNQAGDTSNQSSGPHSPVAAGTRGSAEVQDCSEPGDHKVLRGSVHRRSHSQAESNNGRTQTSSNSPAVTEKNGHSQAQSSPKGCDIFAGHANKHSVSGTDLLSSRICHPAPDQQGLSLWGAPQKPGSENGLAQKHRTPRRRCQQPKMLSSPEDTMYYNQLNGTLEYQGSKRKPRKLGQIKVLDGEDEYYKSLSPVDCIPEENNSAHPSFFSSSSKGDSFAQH

[3] = molecular target: T2, Phosphatidylinositol 3-kinase C2 domain-containing subunit gamma (Homo sapiens) (UniProt O75747); experiment: PI3KC2g(h) Eurofins kinase panel; details: Compound concentration 1.0 uM
T2 sequence (whole entry): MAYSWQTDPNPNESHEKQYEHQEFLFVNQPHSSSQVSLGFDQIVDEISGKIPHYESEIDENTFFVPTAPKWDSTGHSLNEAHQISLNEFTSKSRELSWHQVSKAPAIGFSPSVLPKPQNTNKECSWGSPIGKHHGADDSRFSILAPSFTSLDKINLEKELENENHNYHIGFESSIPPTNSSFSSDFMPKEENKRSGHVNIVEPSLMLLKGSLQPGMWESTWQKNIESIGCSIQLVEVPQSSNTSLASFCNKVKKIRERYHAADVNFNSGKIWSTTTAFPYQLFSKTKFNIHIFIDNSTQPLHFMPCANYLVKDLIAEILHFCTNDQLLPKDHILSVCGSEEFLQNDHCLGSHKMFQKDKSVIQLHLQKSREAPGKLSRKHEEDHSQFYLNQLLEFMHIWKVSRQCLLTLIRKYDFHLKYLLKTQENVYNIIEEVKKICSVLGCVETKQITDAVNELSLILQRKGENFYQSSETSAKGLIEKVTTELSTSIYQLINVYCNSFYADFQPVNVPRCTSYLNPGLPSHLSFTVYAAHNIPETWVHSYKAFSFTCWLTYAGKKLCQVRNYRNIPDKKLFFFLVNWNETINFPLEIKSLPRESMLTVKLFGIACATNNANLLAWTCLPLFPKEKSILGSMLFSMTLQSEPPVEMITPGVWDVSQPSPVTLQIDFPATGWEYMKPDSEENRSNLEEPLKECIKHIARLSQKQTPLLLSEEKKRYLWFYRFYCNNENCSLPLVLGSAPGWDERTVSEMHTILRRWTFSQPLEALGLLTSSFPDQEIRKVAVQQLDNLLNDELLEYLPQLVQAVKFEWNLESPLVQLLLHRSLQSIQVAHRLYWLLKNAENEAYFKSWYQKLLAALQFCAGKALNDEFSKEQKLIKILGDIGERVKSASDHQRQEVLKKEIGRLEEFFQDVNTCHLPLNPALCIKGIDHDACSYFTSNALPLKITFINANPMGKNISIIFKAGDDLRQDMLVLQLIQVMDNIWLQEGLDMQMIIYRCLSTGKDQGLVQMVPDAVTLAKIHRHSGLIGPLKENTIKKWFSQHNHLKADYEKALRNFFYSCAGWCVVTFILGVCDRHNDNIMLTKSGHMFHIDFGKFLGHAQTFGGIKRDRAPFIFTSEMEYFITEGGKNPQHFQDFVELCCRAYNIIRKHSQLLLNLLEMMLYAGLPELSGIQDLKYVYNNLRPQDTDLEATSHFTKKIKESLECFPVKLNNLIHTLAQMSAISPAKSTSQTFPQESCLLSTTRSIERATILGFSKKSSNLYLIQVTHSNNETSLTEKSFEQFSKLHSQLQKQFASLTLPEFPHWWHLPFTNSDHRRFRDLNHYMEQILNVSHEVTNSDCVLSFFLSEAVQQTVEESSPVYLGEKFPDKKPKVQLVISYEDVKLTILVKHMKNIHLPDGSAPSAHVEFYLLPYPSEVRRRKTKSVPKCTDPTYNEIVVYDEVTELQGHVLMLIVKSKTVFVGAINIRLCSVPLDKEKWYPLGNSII

For `CCc1ccccc1C(=O)Nc1n[nH]c2c(C)c(F)c(C3C(C#N)=C(C)N(C)C(C)=C3C#N)cc12` [BAY-3827], the “Cell Proliferation IC50” value [1] was 1500 nM, the % residual kinase activity [2] was 24% and the % residual kinase activity [3] was 100%.
